Results published in patent US20080039442A1, “Compounds With Kv4 Ion Channel Activity” (Devgen NV, priority 2004, published 2008).

System: not given
Assay: not given
Settings: not given
Work on `COc1ccc(CNC(=O)c2cn(Cc3ccccc3)c3ccccc23)c(OC)c1` yielded a melting point of 118.8 to 120.4 °C. With `O=C(N[C@H](C(=O)O)c1ccccc1)c1cc2cc(Cl)ccc2o1` [Compound 41, (S)-[(5-chloro-benzofuran-2-carbonyl)-amino]-phenyl-acetic acid] the melting point was 211.2 to 215.6 °C. For `O=C(NCc1ccc(F)c(C(F)(F)F)c1)c1cc2ccccc2o1` [Compound 50, benzofuran-2-carboxylic acid 4-fluoro-3-trifluoromethyl-benzylamide], the melting point was 89.5 to 91.6 °C. Compound `CC(NC(=O)c1cc2cc(Cl)ccc2o1)c1ccccc1` (centres unmarked) [Compound 57, 5-chloro-benzofuran-2-carboxylic acid (1-phenyl-ethyl)-amide] has a melting point of 136.3 to 138.2 °C. With `CC[C@@H](NC(=O)c1cc2cc(Cl)ccc2o1)c1ccccc1` [Compound 58, 5-chloro-benzofuran-2-carboxylic acid ((R)-1-phenyl-propyl)-amide] the melting point was 118.5 to 120.7 °C. For `CC[C@H](NC(=O)c1cc2cc(Cl)ccc2o1)c1ccccc1` [Compound 59, 5-chloro-benzofuran-2-carboxylic acid ((S)-1-phenyl-propyl)-amide], the melting point was 110.1 to 111.3 °C. Compound `CSc1ccccc1CNC(=O)c1cc2cc(Cl)ccc2o1` [Compound 60, 5-chloro-benzofuran-2-carboxylic acid 2-methylsulfanyl-benzylamide] has a melting point of 174.7 to 177.2 °C. Compound `CSc1ccc(CNC(=O)c2cc3cc(Cl)ccc3o2)cc1` [Compound 61, 5-chloro-benzofuran-2-carboxylic acid 4-methylsulfanyl-benzylamide] has a melting point of 159 to 161 °C. In the case of `COC(=O)c1cccc(CNC(=O)c2cc3cc(Cl)ccc3o2)c1` [Compound 65, 5-{[(5-chloro-benofuran-2-carbonyl)-amino]-methyl}-benzoic acid methyl ester], the melting point is reported as 154 to 155.6 °C. In the case of `CN(C)C(=O)c1cccc(CNC(=O)c2cc3cc(Cl)ccc3o2)c1` [Compound 66, 5-chloro-benzofuran-2-carboxylic acid 3-dimethylcarbamoyl-benzylamide], the melting point is reported as 105.1 to 109.4 °C. With `CN(C)S(=O)(=O)c1ccc(CNC(=O)c2cc3cc(Cl)ccc3o2)cc1` [Compound 67, 5-chloro-benzofuran-2-carboxylic acid 4-dimethylsulfamoyl-benzylamide] the melting point was 163.9 to 166.6 °C. With `O=C(NCc1ccc(Oc2ccccc2)cc1)c1cc2cc(Cl)ccc2o1` [Compound 68, 5-chloro-benzofuran-2-carboxylic acid 4-phenoxy-benzylamide] the melting point was 93.6 to 95.5 °C. In the case of `Cc1ccccc1CNC(=O)c1cc2cc(Cl)ccc2o1` [Compound 69, 5-chloro-benzofuran-2-carboxylic acid 2-methyl-benzylamide], the melting point is reported as 141.8 to 143 °C. For `Cc1cccc(CNC(=O)c2cc3cc(Cl)ccc3o2)c1` [Compound 70, 5-chloro-benzofuran-2-carboxylic acid 3-methyl-benzylamide], the melting point was 148.4 to 149.4 °C. `O=C(NCc1ccccc1-c1ccccc1)c1cc2cc(Cl)ccc2o1` [Compound 72, 5-chloro-benzofuran-2-carboxylic acid (biphenyl-2-ylmethyl)-amide] gave a melting point of 129.8 to 132.8 °C. For `O=C(NCc1cccc(-c2ccccc2)c1)c1cc2cc(Cl)ccc2o1` [Compound 73, 5-chloro-benzofuran-2-carboxylic acid (biphenyl-3-ylmethyl)-amide], the melting point was 130.4 to 131 °C. `O=C(NCc1ccc(Br)cc1)c1cc2cc(Cl)ccc2o1` [Compound 77, 5-chloro-benzofuran-2-carboxylic acid 4-bromo-benzylamide] gave a melting point of 192.3 to 193.8 °C. Work on `CS(=O)(=O)c1ccc(CNC(=O)c2cc3cc(Cl)ccc3o2)cc1` [Compound 79, 5-chloro-benzofuran-2-carboxylic acid 4-methanesulfonyl-benzylamide] yielded a melting point of 187.6 to 189.1 °C. `N#Cc1ccc(CNC(=O)c2cc3cc(Cl)ccc3o2)cc1` [Compound 80, 5-chloro-benzofuran-2-carboxylic acid 4-cyano-benzylamide] gave a melting point of 226.6 to 230.4 °C. `O=C(NCc1ccncc1)c1cc2cc(Cl)ccc2o1` [Compound 81, 5-chloro-benzofuran-2-carboxylic acid (pyridin-4-ylmethyl)-amide] gave a melting point of 163.1 to 166.2 °C.

Biological target: T1, human Kv4.3/KChIP2.2 potassium channel (Homo sapiens, UniProt Q9UK17)
T1 construct: expressed in transfected cells
T1 sequence (Q9UK17 1-655): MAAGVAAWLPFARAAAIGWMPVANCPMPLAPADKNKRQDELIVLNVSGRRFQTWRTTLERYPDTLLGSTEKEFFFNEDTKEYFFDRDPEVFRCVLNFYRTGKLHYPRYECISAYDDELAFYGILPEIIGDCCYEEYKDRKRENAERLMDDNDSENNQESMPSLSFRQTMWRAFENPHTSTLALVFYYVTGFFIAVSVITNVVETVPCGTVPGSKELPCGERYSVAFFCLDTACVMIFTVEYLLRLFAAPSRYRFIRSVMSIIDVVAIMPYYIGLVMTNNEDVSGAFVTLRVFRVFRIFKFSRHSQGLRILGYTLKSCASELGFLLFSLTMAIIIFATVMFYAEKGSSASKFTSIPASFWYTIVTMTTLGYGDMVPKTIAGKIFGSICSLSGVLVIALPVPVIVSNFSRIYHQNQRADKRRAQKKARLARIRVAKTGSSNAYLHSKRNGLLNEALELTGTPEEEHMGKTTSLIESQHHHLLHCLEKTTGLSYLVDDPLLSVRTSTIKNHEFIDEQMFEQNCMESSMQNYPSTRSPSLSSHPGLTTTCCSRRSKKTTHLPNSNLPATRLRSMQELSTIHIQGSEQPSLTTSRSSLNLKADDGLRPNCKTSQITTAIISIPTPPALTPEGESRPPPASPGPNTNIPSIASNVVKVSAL
T1 sequence (Q9NS61 1-270 partner): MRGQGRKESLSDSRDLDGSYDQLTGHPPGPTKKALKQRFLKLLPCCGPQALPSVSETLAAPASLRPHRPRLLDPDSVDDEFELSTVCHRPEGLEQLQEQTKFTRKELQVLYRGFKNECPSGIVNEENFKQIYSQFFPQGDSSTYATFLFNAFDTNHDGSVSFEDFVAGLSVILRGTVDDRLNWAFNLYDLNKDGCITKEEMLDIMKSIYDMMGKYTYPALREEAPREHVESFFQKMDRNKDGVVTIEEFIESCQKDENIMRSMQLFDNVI
Assay: Whole cell patch clamp, CHO-K1 cells stably expressing Kv4.3/KChIP2.2
Format: cell-based
Settings: CHO-K1; 1 μM; read-out: Kv4.3 charge in %: remaining current measured after application of the compound and relative to the blank
Description: For this experiment, a recombinant CHO-K1 cell line stably expressing the human Kv4.3/KChIP2.2 potassium channel was used.
Protocol B: The cells were cultured in 94 mm culture dishes under the culturing conditions of 5% CO2 and 37° C. Subculturing was performed every 3-4 days, by removing the media and then rising the dish with 8 ml PBS (phosphate buffered saline). The PBS was removed and 1 ml Trypsin/EDTA was added to the cells. The cells were incubated about 2 min at 37° C. or 5 min at room temperature and then the dish was rapped to detach and singularize the cells. To inactivate the enzyme 9 ml of media was added and the solution was pipetted up and down to break up clumps of cells. Part of the suspension was then transferred to a new 94 mm dish and media was added to a final volume of 8 ml. If necessary the cells could be seeded onto 35 mm or 94 mm dishes (2 ml media per 35 mm dish and 8 ml media per 94 mm dish). The media was changed every 2-3 days. The media used was the solution for culturing the cells described above. For stable cells antibiotic G418, Hygromycin, Blasticidin, or Zeocin were not added.
The preparation of cells for electrophysiological experiments was performed as described in protocol C hereunder.
Protocol C: The transfected cells and stable cells were transferred from 35 mm cell culture dishes onto coverslips using cold PBS: The media was removed and 0.3 ml of PBS (4-10° C.) was added. The cells were incubated 5 min at room temperature. The dish was rapped to detach and singularize the cells and 1.7 ml media was added and the solution pipetted up and down to break up clumps of cells. Part of the cell suspension was then transferred to a 35 mm dish with coverslips and media. The transfected cells and stable cells could also be transferred from 35 mm cell culture dishes onto coverslips using trypsin: The media was removed and the dish rinsed with 3 ml PBS. The PBS was removed and 0.3 ml 1× Trypsin/EDTA was added and the cells incubated 5 min at room temperature. The dish was rapped to detach and singularize the cells and 1.7 ml media was added and the solution pipetted up and down to break up clumps of cells. Part of the cell suspension was then transferred to a 35 mm dish with coverslips and media.
10 mM stock solutions of the compounds were prepared in DMSO. Solutions of the compounds were prepared by dilution of stock solution in bath solution. If the required stock solution volume was theoretically below 1 μl, bath solutions with higher compound concentration were used for dilution. The maximal DMSO concentration during experiments was 0.1% (v/v).
For patch clamp experiments, the following solutions in demineralized water as vehicle were used (concentration in mM).
Bath (external) solution: 4 KCl, 135 NaCl, 2 CaCl2, 1 MgCl2, 10 D(+)-Glucose, 5 HEPES, pH 7.4 (NaOH).
Pipette (internal) solution: 130 KCl, 1 MgCl2, 10 EGTA, 5 Na2ATP, 5 HEPES, pH 7.4 (KOH).
Experiments were performed using a patch clamp set-up.
Measurements were performed at room temperature (20-25° C.). […] Each cell acted as its own control. The effect of compounds on Kv4.3/KChIP2.2 mediated currents was investigated at one concentration ([…]) with two replicates each (c=1, n=2).
The test protocols are illustrated in FIG. 1 and Table 4. […] Each test protocol consisted of 4 segments.
Subsequently, 14 test pulses (series 1; FIG. 1b and Table 4b) were applied at 0.1 Hz under constant superfusion with bath solution. The protocol was initiated by a voltage jump to −100 mV (400 ms) to achieve full inactivation. Then the Kv4.3/KChIP2.2 channels were transferred to the open state by depolarization to +40 mV for 300 milliseconds (activation). Only cells generating current amplitudes between 1 nA and 50 nA were used for the experimental procedure. No or negligible rundown was observed.
Then, 36 test pulses (series 2) were applied at 0.1 Hz under constant superfusion with the compound dissolved in bath solution. […]
Work on `COc1ccc(CNC(=O)c2cc3ccccc3o2)c(OC)c1` [Compound 12, benzofuran-2-carboxylic acid 2,4-dimethoxy-benzylamide] yielded a remaining activity at 1 µM of 89%. In the case of `COc1ccc(CC(=O)c2cc3ccccc3o2)c(OC)c1` [Compound 23, 1-benzofuran-2-yl-2-(2,4-dimethoxy-phenyl)-ethanone], the remaining activity at 1 µM is reported as 83%. In the case of `O=C(NCc1ccccc1)c1cc2cc(Cl)ccc2o1` [Compound 47, 5-chloro-benzofuran-2-carboxylic benzylamide], the remaining activity at 1 µM is reported as 87%. `Cc1ccc(C2CCN(C(=O)c3cc4cc(Cl)ccc4o3)CC2)cc1` [Compound 98, (5-chloro-benzofuran-2-yl)-(4-p-tolyl-piperidin-1-yl)-methanone] showed a remaining activity at 1 µM of 80%. Compound `Cc1c(C(=O)N2CCCCC2Cc2ccccc2)oc2ccc(Cl)cc12` (centres unmarked) [Compound 106, (2-benzyl-piperidin-1-yl)-(5-chloro-3-methyl-benzofuran-2-yl)-methanone] has a remaining activity at 1 µM of 59%.

Same assay, conditions: CHO-K1; 1 μM; read-out: Kv4.3 peak in %: remaining peak height measured after application of the compound and relative to the blank
`COc1ccc(CNC(=O)c2cc3ccccc3o2)c(OC)c1` [Compound 12, benzofuran-2-carboxylic acid 2,4-dimethoxy-benzylamide] gave a remaining activity at 1 µM of 97%. For `COc1ccc(CC(=O)c2cc3ccccc3o2)c(OC)c1` [Compound 23, 1-benzofuran-2-yl-2-(2,4-dimethoxy-phenyl)-ethanone], the remaining activity at 1 µM was 99%. For `O=C(NCc1ccccc1)c1cc2cc(Cl)ccc2o1` [Compound 47, 5-chloro-benzofuran-2-carboxylic benzylamide], the remaining activity at 1 µM was 95%. `Cc1ccc(C2CCN(C(=O)c3cc4cc(Cl)ccc4o3)CC2)cc1` [Compound 98, (5-chloro-benzofuran-2-yl)-(4-p-tolyl-piperidin-1-yl)-methanone] showed a remaining activity at 1 µM of 97%. Work on `Cc1c(C(=O)N2CCCCC2Cc2ccccc2)oc2ccc(Cl)cc12` (centres unmarked) [Compound 106, (2-benzyl-piperidin-1-yl)-(5-chloro-3-methyl-benzofuran-2-yl)-methanone] yielded a remaining activity at 1 µM of 87%.

Same assay, conditions: Table 12; read-out: Kv4.3 charge IC50
Work on `Cc1ccc2[nH]cc(CCNC(=O)c3cc4cc(Cl)ccc4o3)c2c1` [Compound 3, 5-chloro-benzofuran-2-carboxylic acid [2-(5-methyl-1H-indole-3-yl)-ethyl]-amide] yielded an IC50 of 1330 nM. For `O=C(c1ccc(Cl)cc1)C1CCN(C(=O)c2cc3cc(Cl)ccc3o2)CC1` [Compound 7, (5-chloro-benzofuran-2-yl)-[4-(4-chloro-benzoyl)-piperidin-1-yl]-methanone], the IC50 was 890 nM.
